Assay results reported in ChEMBL document CHEMBL5465560, “Selectivity Literature for EUbOPEN Chemogenomic Library” (2024).

Key:
[1] = target: Ribosomal protein S6 kinase beta-1 (Homo sapiens, UniProt P23443); experiment: Selectivity interaction (Kinase screening (Upstate/Millipore)) EUB0000604a RPS6KB1
[2] = target: cAMP-dependent protein kinase catalytic subunit beta (Homo sapiens) (UniProt P22694); experiment: Selectivity interaction (Ambit KINOMEscan and KiNATiv profiling in Jurkat cells) EUB0000090b PRKACB; format: cell-based; conditions: at 1 µM
[3] = target: Serine/threonine-protein kinase PLK2 (Homo sapiens, UniProt Q9NYY3); experiment: Selectivity interaction (Kinase panel (Invitrogen)) EUB0000639a PLK2; conditions: at 200 nM
[4] = tested on: Platelet-derived growth factor receptor alpha (Homo sapiens), P16234 [V561D]; experiment: (§1) Selectivity interaction (Kinase panel (Carna Biosciences)) EUB0001542aTs PDGFRA; conditions: at 1 µM
[5] = tested on: Platelet-derived growth factor receptor alpha (Homo sapiens), P16234 [T674I]; experiment: as §1; conditions: at 1 µM
[6] = target: Platelet-derived growth factor receptor alpha (Homo sapiens, UniProt P16234); experiment: as §1; conditions: at 1 µM
[7] = target: T1, Serine/threonine-protein kinase Nek2 (Homo sapiens) (UniProt P51955); experiment: Selectivity interaction (Kinase panel (Z-LYTE Assay)) EUB0001632a NEK2; conditions: at 10 µM
T1 sequence (whole entry): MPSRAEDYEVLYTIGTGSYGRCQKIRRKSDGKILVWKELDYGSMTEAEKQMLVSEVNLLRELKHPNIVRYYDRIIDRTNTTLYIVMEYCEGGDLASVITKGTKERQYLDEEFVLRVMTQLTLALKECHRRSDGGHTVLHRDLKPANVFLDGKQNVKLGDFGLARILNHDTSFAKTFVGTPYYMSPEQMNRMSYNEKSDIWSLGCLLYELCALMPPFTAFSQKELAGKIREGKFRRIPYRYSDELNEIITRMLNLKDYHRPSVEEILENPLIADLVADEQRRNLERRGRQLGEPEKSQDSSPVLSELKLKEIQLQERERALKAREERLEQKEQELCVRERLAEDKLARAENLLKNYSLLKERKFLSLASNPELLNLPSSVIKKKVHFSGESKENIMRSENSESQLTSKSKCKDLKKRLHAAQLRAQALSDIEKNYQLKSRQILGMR

[8] = target: G protein-coupled receptor kinase 4 (Homo sapiens) (UniProt P32298); experiment: Selectivity interaction (KinomeScan (DiscoverX)) EUB0000695a GRK4; conditions: at 100 nM
[9] = target: T2, Serine/threonine-protein kinase haspin (Homo sapiens) (UniProt Q8TF76); experiment: Selectivity interaction (KinomeScan (DiscoverX)) EUB0000229b GSG2; conditions: at 10 µM
T2 sequence (whole entry): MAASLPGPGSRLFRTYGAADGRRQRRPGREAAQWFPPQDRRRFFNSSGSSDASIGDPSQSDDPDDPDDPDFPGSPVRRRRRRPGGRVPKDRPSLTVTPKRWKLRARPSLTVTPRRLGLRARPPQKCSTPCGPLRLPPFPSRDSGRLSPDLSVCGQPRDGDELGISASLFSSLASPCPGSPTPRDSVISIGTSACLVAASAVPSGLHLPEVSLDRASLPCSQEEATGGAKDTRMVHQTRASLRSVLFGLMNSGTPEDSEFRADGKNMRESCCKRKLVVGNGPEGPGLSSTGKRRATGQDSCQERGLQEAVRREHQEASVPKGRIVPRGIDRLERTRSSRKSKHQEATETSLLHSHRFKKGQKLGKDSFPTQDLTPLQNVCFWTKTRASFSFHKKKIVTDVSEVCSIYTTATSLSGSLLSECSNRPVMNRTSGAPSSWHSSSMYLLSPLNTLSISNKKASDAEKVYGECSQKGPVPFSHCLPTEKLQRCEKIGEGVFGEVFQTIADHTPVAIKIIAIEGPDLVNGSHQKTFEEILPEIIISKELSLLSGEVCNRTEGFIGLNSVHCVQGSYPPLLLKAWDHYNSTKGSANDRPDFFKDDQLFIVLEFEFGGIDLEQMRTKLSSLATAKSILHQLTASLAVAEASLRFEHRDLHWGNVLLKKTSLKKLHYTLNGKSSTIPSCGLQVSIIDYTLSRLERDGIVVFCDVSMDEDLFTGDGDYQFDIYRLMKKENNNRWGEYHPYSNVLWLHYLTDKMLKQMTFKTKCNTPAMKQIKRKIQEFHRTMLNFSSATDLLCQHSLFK

[10] = target: Cyclin-dependent kinase 16 (Homo sapiens) (UniProt Q00536); experiment: Selectivity interaction (KinomeScan (DiscoverX)) EUB0001619a CDK16; conditions: at 1 µM
[11] = target: Death-associated protein kinase 2 (Homo sapiens) (UniProt Q9UIK4); experiment: Selectivity interaction (KinomeScan (DiscoverX)) EUB0001619a DAPK2; conditions: at 1 µM
[12] = target: Phosphatidylinositol 4,5-bisphosphate 3-kinase catalytic subunit alpha isoform (Homo sapiens) (UniProt P42336); experiment: Selectivity interaction (KinomeScan (DiscoverX)) EUB0000618a PIK3CA; conditions: at 10 µM
[13] = target: T3, Serine/threonine-protein kinase tousled-like 1 (Homo sapiens) (UniProt Q9UKI8); experiment: Selectivity interaction (Kinase panel (KiNativ target engagement assay in Jurkat cells)) EUB0001635a TLK1; format: cell-based; conditions: at 1 µM
T3 sequence (whole entry): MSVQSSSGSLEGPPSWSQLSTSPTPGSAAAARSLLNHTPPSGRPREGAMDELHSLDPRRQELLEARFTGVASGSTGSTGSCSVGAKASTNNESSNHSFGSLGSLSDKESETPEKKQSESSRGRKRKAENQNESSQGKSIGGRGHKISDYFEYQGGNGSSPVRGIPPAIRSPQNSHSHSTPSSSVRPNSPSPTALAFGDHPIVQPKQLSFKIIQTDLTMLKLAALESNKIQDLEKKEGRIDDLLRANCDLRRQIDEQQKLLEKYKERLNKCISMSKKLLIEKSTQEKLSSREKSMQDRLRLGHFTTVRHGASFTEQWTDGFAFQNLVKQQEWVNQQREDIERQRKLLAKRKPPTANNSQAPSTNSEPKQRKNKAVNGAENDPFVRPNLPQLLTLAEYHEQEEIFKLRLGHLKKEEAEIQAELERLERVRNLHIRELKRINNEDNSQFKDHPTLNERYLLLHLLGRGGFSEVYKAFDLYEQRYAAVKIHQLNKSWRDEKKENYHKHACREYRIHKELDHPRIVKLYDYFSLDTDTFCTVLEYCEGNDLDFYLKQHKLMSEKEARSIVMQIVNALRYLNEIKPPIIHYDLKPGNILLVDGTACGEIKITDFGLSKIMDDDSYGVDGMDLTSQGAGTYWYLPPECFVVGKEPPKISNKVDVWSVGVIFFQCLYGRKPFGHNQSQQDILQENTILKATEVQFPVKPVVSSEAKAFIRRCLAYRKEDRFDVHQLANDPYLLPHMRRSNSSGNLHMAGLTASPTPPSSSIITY

[14] = target: D(1A) dopamine receptor (Homo sapiens, UniProt P21728); experiment: Selectivity interaction (Panel of kinases, GPCRs, ion channels and transporters (enzymatic assay)) EUB0000223bCl DRD1
Sequence of D(1A) dopamine receptor (P21728 whole entry): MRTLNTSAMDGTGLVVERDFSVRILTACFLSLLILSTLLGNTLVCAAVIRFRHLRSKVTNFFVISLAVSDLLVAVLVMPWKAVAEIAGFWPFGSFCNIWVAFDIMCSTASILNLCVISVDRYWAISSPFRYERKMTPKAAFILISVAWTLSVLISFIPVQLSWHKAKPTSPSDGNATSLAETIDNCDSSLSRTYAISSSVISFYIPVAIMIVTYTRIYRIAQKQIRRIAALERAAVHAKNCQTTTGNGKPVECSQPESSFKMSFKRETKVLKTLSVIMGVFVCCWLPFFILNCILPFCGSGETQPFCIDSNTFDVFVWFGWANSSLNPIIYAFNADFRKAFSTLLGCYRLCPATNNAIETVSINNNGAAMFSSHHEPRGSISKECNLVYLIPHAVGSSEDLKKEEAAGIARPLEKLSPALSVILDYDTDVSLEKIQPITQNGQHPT

Sequence of Phosphatidylinositol 4,5-bisphosphate 3-kinase catalytic subunit alpha isoform (Homo sapiens) (P42336 whole entry, canonical isoform): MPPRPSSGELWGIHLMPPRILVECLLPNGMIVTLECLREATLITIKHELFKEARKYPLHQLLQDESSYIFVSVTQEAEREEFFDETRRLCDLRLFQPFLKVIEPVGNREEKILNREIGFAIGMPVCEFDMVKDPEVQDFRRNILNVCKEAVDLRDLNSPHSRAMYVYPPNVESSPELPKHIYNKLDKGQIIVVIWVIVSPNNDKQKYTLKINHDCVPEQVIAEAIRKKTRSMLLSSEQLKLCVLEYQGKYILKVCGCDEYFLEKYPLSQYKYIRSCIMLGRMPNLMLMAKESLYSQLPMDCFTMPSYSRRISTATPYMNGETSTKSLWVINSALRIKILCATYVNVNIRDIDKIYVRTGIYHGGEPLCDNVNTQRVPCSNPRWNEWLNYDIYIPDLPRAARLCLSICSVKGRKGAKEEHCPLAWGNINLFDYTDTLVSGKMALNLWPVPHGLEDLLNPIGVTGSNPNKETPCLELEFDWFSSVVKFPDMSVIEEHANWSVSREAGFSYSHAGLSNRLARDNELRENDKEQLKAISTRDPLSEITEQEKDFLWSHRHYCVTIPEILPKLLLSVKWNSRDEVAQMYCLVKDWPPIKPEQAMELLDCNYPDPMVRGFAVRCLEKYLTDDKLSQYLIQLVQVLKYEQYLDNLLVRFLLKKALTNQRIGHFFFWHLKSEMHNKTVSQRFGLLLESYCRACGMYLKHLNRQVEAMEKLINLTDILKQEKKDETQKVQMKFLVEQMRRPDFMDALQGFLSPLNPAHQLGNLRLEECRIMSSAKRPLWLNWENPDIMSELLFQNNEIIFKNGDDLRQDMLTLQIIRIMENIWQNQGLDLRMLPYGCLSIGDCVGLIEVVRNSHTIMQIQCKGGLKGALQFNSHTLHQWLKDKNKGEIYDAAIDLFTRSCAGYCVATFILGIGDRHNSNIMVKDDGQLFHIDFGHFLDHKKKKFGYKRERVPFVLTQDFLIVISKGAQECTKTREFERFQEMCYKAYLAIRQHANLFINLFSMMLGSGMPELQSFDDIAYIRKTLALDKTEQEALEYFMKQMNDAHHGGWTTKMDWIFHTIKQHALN
Sequence of Serine/threonine-protein kinase PLK2 (Q9NYY3 whole entry, looked up): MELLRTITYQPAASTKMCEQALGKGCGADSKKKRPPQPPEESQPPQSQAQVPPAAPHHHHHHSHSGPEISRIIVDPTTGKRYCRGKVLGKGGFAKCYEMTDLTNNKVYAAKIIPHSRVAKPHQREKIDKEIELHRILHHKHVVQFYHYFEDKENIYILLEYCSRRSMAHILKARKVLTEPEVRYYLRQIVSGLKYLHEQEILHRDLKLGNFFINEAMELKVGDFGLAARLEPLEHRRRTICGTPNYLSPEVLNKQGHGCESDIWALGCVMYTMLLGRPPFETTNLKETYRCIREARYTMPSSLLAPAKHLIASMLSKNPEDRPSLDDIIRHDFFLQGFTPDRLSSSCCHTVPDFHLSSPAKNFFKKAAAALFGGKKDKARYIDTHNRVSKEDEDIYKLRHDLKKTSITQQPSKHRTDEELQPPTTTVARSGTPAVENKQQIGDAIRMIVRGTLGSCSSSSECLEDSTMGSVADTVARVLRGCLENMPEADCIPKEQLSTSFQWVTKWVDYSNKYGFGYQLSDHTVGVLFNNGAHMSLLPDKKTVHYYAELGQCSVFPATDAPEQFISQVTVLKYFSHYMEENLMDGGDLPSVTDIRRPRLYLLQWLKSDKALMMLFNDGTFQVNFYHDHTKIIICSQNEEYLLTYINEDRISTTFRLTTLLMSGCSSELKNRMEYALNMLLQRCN
Sequence of Ribosomal protein S6 kinase beta-1 (P23443 whole entry, looked up): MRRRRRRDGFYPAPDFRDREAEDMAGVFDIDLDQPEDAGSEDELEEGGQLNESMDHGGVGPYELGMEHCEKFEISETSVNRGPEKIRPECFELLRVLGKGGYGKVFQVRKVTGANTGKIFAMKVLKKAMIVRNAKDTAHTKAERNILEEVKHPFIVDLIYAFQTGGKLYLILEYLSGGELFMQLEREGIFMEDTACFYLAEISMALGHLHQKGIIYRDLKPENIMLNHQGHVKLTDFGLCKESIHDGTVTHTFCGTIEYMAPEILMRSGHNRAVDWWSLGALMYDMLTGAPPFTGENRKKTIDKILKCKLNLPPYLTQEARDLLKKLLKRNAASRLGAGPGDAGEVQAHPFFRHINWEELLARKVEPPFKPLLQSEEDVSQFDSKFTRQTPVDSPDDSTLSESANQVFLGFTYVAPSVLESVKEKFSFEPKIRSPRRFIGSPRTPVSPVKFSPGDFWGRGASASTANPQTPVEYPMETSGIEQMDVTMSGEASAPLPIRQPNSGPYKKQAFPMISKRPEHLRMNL
Sequence of Death-associated protein kinase 2 (Homo sapiens) (Q9UIK4 whole entry, looked up, canonical isoform): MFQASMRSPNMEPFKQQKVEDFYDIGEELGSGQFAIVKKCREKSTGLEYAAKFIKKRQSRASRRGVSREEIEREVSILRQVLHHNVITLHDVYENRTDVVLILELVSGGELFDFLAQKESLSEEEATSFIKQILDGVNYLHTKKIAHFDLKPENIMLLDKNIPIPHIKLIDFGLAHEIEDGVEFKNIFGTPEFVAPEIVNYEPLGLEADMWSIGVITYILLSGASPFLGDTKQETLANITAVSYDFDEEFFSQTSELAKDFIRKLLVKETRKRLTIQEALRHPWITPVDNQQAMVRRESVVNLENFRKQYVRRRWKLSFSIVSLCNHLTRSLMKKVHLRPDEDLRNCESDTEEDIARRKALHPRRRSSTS
Sequence of Platelet-derived growth factor receptor alpha (P16234 whole entry): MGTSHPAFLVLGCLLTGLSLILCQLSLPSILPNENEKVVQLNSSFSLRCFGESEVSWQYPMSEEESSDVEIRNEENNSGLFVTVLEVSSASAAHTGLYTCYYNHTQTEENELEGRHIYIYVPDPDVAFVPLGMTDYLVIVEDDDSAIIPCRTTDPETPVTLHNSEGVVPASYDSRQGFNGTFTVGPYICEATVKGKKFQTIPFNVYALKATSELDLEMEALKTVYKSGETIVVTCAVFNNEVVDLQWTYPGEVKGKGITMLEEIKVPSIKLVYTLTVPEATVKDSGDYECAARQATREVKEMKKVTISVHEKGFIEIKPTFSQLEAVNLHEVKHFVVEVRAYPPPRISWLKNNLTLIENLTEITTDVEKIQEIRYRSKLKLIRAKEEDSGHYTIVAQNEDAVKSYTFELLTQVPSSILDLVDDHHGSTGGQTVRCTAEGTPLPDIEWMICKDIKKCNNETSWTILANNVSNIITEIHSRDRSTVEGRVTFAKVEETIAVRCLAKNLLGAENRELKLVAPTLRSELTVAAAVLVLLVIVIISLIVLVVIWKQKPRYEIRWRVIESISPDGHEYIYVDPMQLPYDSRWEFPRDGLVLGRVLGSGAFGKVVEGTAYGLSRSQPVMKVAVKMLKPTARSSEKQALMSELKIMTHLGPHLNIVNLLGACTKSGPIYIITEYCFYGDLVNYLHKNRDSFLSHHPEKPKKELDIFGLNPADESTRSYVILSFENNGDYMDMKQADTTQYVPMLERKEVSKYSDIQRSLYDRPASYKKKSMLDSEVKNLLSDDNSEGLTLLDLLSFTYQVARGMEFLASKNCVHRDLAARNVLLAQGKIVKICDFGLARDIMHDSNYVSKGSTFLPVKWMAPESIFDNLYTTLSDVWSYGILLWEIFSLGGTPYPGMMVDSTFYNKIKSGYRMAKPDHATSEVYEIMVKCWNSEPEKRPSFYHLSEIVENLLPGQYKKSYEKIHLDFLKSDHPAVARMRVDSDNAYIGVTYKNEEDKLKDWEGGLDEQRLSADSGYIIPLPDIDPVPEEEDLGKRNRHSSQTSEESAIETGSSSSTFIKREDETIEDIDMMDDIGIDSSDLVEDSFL
Sequence of Platelet-derived growth factor receptor alpha (Homo sapiens), P16234 [T674I] (P16234 whole entry T674I): as the sequence (P16234 whole entry) above, with T674I counted along it
Sequence of G protein-coupled receptor kinase 4 (Homo sapiens) (P32298 whole entry, looked up): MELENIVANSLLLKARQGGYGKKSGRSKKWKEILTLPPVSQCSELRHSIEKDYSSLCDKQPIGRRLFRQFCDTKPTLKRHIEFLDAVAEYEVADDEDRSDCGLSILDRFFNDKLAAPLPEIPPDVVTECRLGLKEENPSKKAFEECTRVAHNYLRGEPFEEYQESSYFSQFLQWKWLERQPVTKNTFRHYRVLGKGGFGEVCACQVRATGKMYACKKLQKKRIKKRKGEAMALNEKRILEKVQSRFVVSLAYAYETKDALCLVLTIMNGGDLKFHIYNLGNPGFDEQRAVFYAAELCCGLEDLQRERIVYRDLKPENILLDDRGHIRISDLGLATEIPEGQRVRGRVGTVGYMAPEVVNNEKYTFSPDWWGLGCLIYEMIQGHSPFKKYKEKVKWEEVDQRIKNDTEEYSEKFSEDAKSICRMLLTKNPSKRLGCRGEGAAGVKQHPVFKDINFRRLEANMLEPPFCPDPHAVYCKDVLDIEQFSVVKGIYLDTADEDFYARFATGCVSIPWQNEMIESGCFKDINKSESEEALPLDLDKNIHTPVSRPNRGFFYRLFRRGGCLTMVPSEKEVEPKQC
Sequence of Platelet-derived growth factor receptor alpha (Homo sapiens), P16234 [V561D] (P16234 whole entry V561D): as the sequence (P16234 whole entry) above, with V561D counted along it

Cc1cnc(Nc2ccc(F)cc2Cl)nc1-c1c[nH]c(C(=O)N[C@H](CO)c2cccc(Cl)c2)c1
% of inhibition [1]: 18%

CN(C)C/C=C/C(=O)Nc1ccc(C(=O)N2CCCC(Nc3ncc(Cl)c(-c4c[nH]c5ccccc45)n3)C2)cc1 (stereo not given)
% of control [2]: 90%

CC[C@@H]1[C@H](F)C(=O)N[C@@H]1COc1nccc2cc(C(N)=O)c(OC)cc12 [ZIMLOVISERTIB]
% of inhibition [3]: 5.58%

Cn1cc(Nc2nccc(N3CC4CCC(C3)N4C(=O)[C@@H]3CC3(F)F)n2)cn1
% of inhibition [4]: 60% | % of inhibition [5]: 78% | % of inhibition [6]: 70%

Cn1cc(-n2cnc3c(NCc4nc5cc(Cl)c(Cl)cc5[nH]4)nc(N4CCOCC4)nc32)cn1
% of control [7]: 1.81%

Cc1cc(F)c(C(=O)Nc2cccc(-c3nncn3C(C)C)n2)cc1-n1cnc(C2CC2)c1
% of control [8]: 100%

COc1cc(N(C)c2ccnc3ccc(C(F)(F)F)cc23)cc(OC)c1OC
% binding [9]: 43%

N#Cc1cccc(-c2c[nH]c3ncnc(N4CCOCC4)c23)c1
% of control [10]: 90% | % of control [11]: 100%

O[C@H]1CC[C@H](Nc2ncc3nc(Nc4c(F)cc(F)cc4F)n([C@H]4CCOC4)c3n2)CC1
% of control [12]: 100%

C=CC(=O)Nc1ccc(C(=O)Nc2[nH]nc3c2CN(C(=O)N[C@H](CN(C)C)c2ccccc2)C3(C)C)cc1
% of engagement ([13]; Selectivity number of off-targets 0.0, Selectivity number of targets 233.0, Source Knowledge https://www.sciencedirect.com/science/article/pii/S2451945619300674?via%3Dihub): 12.6% | % of engagement [13]: 13.2%

COc1cc(C(=O)N2CC[C@@H](O)[C@@H](N)C2)cc2nc(-c3cc4ccccc4n3CC3CC3)n(C)c12
pXC50 [14]: < 4.5 M
